According to patent publication US10806739B2, “Use of n-desmethylclobazam in the treatment of chronic pain disorders and related methods” (LES HOPITAUX UNIV[…] GENEVE, priority 2015, dated 2020):

Assays:
[1] = test system: T1, α1β2γ2, α2β3γ2, α3β3γ2 and α5β2γ2 GABAARs; test: Whole-cell patch-clamp, results stated across several recombinant GABAAR subtypes; assay type: cell-based, rat; details: up to 3 μM for DZP, up to 20 μM for CBZ and NDMC
T1 construct: EC50 of potentiation of GABAAR currents; other: range over all four receptor subtypes; GABA at EC10; fused on or other part: eGFP co-expressed from an IRES on the γ2 plasmid (not fused)
Text: (§1) To ensure expression of the γ2 subunit (required for modulation of GABAAR currents by BDZs) in all recorded cells, cells were transfected with a plasmid expressing the γ2 subunit plus eGFP from an IRES (internal ribosome entry site) and only eGFP-positive cells were selected for recordings. The transfection mixture contained (in μg): […], 3 γ2/eGFP (used as a marker of successful transfection). Whole-cell patch-clamp recordings were made 18-36 hrs after transfection at room temperature (20-24° C.) and at a holding membrane potential of −60 mV. Recording electrodes were filled with solution containing (in mM): 120 CsCl, 10 EGTA (aminopolycarboxylic acid), 10 HEPES (4-(2-hydroxyethyl)-1-piperazineethanesulfonic acid, pH 7.40), 4 MgCl2, 0.5 GTP (guanosine-5′-triphosphate) and 2 ATP (adenosine triphosphate). The external solution contained (in mM): 150 NaCl, 10 KCl, 2.0 CaCl2, 1.0 MgCl2, 10 HEPES (pH 7.40), and 10 glucose. GABA was applied to the recorded cell using a manually controlled pulse (6-10 s) of a low sub-saturating GABA concentration (EC10). […] EC50 values and Hill coefficients (nH) were obtained from fits of normalized concentration-response curves to the equation: IGABA=Imax[GABA]nH/([GABA]nH+[EC50]nH). Imax was determined as the average maximal current elicited by saturating concentration of GABA (30 μM−3 mM, depending on the subunit composition).

[2] = test system: α1β2γ2, α2β3γ2, α3β3γ2 and α5β2γ2 GABAARs; test: as above; assay type: cell-based, rat; details: for Preference α2- versus α1GABAARs at low concentrations: low concentrations (<EC50); for Efficacy of potentiation of α2- versus α1GABAARs at saturating concentrations: saturating concentrations: 1 μM DZP, 20 μM CBZ, 20 μM NDMC; for Relative potentiation of subtypes at sub-saturating concentrations: sub-saturating concentrations (<EC50)
Text: as §1

[3] = test system: α2GABAAR-mediated antihyperalgesia; details: GABAAR α1 (H→R) point-mutated mice
Description: To avoid confounding effects of anxiolysis in sedation experiments, and of sedation on antihyperalgesia experiments triple point-mutated mice were used. Sedation was assessed in triple (H→R) point-mutated mice, in which all GABAARs except α1 had been rendered BDZ-insensitive. Conversely, antihyperalgesia was studied in GABAAR α1 (H→R) point-mutated mice to rule out confounding sedation.

[4] = test system: α1GABAAR-mediated sedation; test: Dose dependence of sedation in triple (H→R) point-mutated mice; details: all GABAARs except α1 BDZ-insensitive
Description: Mice (C57BL/6J or 129X1/SvJ) were tested during the light phase of the day-night cycle. […] Motor activity expressed as the total number of photocell interruptions was recorded for 6 h.

α3β3γ2 GABAAR = target: T2, α3β3γ2 GABAAR (Rattus norvegicus, UniProt P18508+P20236); test: Whole-cell patch-clamp, potentiation of GABA-evoked currents in transfected HEK293 cells; assay type: cell-based; details: α3GABAARs; GABA at EC10
T2 construct: expressed in transfected cells; host or cells: HEK293 cells (ATCC)
Text: as §1

α2GABAAR = α2GABAAR (Mus musculus, UniProt P22723+P26048); details: full agonist; cited from earlier work
[5] = NDMC pharmacokinetics after oral administration, dried blood spot sampling, LCMS-MS; assay type: in vivo, C57BL/6 mice
Description: Pharmacokinetic parameters of NDMC following oral administration in C57BL/6 mice were determined and allowed to test whether antihyperalgesia after NDMC administration was mediated by NDMC itself and not by a down-stream metabolite.
Pharmacokinetic properties of NDMC were evaluated using the dried blood spot sampling method. This technique allows collecting multiple bleeds from the same animal over a large time window (Deglon et al., 2011, Pharm. Biomed. Analysis, 54(2): 359-367). Four μl of whole blood were collected and spotted onto a filter paper card from Whatman (Dassel, Germany) at different time points between 0 and 48 h after NDMC administration. NDMC concentration measurements were performed using a fully validated LCMS-MS (liquid chromatography—mass spectrometry or HPLC) method. Pharmacokinetic parameters were estimated by a noncompartmental method using WinNonlin® version 5.2 (Pharsight, Mountainview, Calif., USA).
Blood NDMC concentrations were measured with HPLC following single oral doses of 3, 10 and 30 mg kg^−1 in three mice per group (FIG. 5). Maximal blood levels of NDMC were reached within 2-3 hrs.

[6] = test system: CCI mice, paw withdrawal threshold; test: Mechanical hyperalgesia (dynamic von Frey filaments) in CCI neuropathic pain model; assay type: in vivo
Description: (§2) Experiments were performed in wild-type mice (genetic background C57BL/6J or 129X1/SvJ), and in homozygous triple and quadruple (H→R) GABAAR point-mutated mice of the 129X1/SvJ background (Ralvenius et al., 2015, supra). Quadruple point-mutated mice were generated by cross breeding of single point-mutated mice (Crestani et al., 2002, PNAS, 99(13): 8980-8985; Low et al., 2000, Science 290(5489): 131-134; Rudolph et al., 1999, Nature, 401(6755): 796-800). Quadruple point mutated mice carry the H→R mutation in the α1, α2, α3, and α5 subunits that is in all α subunits that can form a high affinity BDZ binding site.
(§3) A chronic constriction injury (CCI) model was used. Unilateral constriction injury of the left sciatic nerve just proximal to the trifurcation was performed. Anesthesia was induced and maintained by 2% isoflurane, combined with oxygen (30%). The sciatic nerve was exposed at the mid-thigh level proximal to the sciatic trifurcation by blunt dissection through the biceps femoris muscle. 5±7 mm of nerve were freed of adhering tissue and three chromic gut ligatures (4/0) (Ethicon) were loosely put around the nerve with about 1 mm spacing. […] Heat hyperalgesia and mechanical sensitization were assessed 7 days after surgery.
Mechanical sensitivity was assessed with dynamic von Frey filaments (IITC, Woodland Hills, Calif.). […]

mice, motor activity = test: Motor activity (photocell interruptions); assay type: in vivo
[7] = test system: CCI mice, paw withdrawal latency; test: Heat hyperalgesia (Plantar Test) in chronic constriction injury (CCI) neuropathic pain model; assay type: in vivo
Description: as §2
as §3, with “muscle.” for “muscle. 5±7 mm of nerve were freed of adhering tissue and three chromic gut ligatures (4/0) (Ethicon) were loosely put around the nerve with about 1 mm spacing.”
Paw withdrawal latencies upon exposure to a defined radiant heat stimulus were measured using a commercially available apparatus (Plantar Test, Ugo Basile, Comerio, Italy). […]

[8] = test system: α2 versus α1 receptor complexes; details: cited from earlier work
α1β2γ2 GABAAR = target: T3, α1β2γ2 GABAAR (Rattus norvegicus, UniProt P18508+P62813); test: Whole-cell patch-clamp, potentiation of GABA-evoked currents in transfected HEK293 cells; assay type: cell-based; details: α1GABAARs; GABA at EC10
T3 construct: expressed in transfected cells; host or cells: HEK293 cells (ATCC)
Text: as §1

α2β3γ2 GABAAR = target: T4, α2β3γ2 GABAAR (Rattus norvegicus, UniProt P18508+P23576); test: as above; assay type: cell-based
T4 construct: expressed in transfected cells; host or cells: HEK293 cells (ATCC)
Text: as §1

α5β2γ2 GABAAR = target: T5, α5β2γ2 GABAAR (Rattus norvegicus, UniProt P18508+P19969); test: as above; assay type: cell-based; details: α5GABAARs; GABA at EC10
T5 construct: expressed in transfected cells; host or cells: HEK293 cells (ATCC)
Text: as §1

healthy volunteers = details: standard therapeutic doses; cited from earlier work
[9] = test system: T6, α1β2γ2, α2β3γ2, α3β3γ2 and α5β2γ2 GABAARs; test: Whole-cell patch-clamp, results stated across several recombinant GABAAR subtypes; assay type: cell-based, rat; details: α1-, α2- and α5-GABAARs together; GABA at EC10
T6 construct: rows headed: Potentiation of the other three α1-, α2-, and α5-GABAARs subtypes; other: α1-, α2- and α5-GABAARs together; GABA at EC1; fused on or other part: eGFP co-expressed from an IRES on the γ2 plasmid (not fused)
Text: as §1

[10] = after a single oral dose of 20 or 30 mg of CBZ; cited from earlier work
[11] = single oral doses of 3, 10 and 30 mg kg^−1
[12] = quadruple point-mutated mice, 30 mg kg^−1

T2 sequence (P20236 29-493): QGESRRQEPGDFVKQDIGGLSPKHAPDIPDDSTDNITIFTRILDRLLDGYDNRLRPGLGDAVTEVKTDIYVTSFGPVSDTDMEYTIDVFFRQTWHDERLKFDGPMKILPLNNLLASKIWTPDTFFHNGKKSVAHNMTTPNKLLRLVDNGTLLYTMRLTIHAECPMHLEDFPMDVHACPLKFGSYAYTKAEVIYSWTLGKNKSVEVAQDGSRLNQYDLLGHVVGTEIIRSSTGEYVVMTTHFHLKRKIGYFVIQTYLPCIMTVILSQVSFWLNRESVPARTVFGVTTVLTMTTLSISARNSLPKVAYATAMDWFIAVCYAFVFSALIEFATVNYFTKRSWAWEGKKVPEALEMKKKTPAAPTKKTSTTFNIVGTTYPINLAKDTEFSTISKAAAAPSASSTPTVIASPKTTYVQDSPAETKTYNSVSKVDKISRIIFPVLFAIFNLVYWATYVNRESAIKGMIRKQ
T2 sequence (P63079 26-473 partner): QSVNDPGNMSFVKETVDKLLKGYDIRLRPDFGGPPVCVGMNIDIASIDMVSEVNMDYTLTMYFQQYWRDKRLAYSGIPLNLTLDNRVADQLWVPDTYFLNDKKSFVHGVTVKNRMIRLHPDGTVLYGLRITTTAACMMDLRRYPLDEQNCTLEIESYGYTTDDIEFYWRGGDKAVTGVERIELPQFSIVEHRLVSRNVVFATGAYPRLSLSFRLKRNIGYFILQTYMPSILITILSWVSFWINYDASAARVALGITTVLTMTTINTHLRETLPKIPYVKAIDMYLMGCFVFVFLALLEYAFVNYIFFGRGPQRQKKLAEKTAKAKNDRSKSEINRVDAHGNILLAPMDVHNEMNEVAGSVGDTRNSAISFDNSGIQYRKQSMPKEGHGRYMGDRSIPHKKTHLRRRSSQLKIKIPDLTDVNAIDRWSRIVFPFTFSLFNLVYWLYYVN
T2 sequence (P18508 39-466): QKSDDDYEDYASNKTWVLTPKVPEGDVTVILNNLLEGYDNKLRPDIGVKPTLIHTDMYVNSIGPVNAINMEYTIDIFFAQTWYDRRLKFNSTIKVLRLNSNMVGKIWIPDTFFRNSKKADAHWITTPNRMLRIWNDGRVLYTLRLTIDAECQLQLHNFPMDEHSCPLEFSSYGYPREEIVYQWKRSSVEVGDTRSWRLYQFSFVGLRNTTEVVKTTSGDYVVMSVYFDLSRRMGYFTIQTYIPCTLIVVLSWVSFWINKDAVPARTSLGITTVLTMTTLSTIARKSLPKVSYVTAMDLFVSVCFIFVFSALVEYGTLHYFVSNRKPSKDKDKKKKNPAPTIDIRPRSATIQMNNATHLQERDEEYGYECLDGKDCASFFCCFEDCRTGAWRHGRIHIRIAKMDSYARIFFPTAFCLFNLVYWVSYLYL
T4 sequence (P23576 29-451): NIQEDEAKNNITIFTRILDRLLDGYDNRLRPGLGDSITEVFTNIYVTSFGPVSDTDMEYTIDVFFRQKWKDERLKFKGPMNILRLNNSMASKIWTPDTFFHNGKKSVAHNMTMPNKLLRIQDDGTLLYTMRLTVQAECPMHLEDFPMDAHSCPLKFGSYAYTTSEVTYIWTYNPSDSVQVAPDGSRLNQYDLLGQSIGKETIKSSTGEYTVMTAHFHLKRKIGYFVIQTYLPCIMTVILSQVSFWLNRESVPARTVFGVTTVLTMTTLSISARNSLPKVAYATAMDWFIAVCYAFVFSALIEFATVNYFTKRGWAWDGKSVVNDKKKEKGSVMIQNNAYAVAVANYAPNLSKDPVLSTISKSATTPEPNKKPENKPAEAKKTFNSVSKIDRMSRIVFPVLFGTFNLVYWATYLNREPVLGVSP
T4 sequence (P63079 26-473 partner): as the sequence (P63079 26-473 partner) above
T4 sequence (P18508 39-466): as the sequence (P18508 39-466) above
T3 sequence (P62813 28-455): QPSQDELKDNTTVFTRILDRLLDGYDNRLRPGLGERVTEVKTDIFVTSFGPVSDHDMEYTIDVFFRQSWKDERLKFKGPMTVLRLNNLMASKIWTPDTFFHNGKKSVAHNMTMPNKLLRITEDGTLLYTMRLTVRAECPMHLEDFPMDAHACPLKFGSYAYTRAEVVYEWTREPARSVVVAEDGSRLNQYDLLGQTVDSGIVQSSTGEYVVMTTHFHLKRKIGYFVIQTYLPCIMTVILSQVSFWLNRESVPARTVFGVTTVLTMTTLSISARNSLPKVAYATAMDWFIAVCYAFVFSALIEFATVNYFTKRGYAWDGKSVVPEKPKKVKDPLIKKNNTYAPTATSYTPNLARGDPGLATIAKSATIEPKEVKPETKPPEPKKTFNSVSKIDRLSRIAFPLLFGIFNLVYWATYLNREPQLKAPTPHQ
T3 sequence (P63138 25-474 partner limits assumed): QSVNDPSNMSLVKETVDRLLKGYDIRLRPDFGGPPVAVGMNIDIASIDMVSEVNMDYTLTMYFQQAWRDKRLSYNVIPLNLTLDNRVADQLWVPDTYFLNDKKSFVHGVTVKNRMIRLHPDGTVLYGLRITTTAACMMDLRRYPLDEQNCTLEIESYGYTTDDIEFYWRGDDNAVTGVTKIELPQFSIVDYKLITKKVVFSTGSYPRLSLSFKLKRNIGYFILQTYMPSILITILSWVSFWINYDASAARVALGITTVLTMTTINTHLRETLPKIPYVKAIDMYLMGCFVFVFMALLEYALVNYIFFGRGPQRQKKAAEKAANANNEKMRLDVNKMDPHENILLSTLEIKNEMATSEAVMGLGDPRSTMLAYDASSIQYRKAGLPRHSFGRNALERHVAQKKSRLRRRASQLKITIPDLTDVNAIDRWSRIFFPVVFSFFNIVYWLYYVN
T3 sequence (P18508 39-466): as the sequence (P18508 39-466) above
Sequence of α2GABAAR (P26048 29-451): as the sequence (P23576 29-451) above, with S88L, P174A counted along it
Sequence of α2GABAAR (P22723 39-474): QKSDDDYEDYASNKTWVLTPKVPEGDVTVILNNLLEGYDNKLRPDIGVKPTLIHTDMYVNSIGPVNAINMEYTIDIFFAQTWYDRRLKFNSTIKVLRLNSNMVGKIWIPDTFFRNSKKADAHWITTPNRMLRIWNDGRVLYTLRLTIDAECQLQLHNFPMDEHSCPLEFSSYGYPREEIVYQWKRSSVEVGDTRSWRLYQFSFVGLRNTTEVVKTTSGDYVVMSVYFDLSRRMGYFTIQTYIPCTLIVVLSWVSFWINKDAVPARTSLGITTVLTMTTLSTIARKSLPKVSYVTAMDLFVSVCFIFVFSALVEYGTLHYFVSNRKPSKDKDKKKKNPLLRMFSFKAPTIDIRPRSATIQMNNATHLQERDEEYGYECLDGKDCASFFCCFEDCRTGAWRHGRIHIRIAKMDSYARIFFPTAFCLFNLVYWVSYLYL
T5 sequence (P19969 32-464 limits assumed): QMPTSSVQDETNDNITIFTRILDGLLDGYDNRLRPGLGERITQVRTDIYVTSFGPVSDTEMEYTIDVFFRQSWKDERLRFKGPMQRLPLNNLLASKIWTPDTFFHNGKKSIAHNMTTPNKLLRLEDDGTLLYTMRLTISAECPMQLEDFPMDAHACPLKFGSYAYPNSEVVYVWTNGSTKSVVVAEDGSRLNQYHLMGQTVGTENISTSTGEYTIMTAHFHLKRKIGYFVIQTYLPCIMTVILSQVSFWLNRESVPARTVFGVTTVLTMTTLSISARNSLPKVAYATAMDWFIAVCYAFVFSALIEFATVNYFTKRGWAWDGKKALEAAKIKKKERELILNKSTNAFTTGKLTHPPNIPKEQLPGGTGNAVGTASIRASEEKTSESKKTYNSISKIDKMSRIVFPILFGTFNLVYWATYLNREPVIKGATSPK
T5 sequence (P63138 25-474 partner limits assumed): as the sequence (P63138 25-474 partner limits assumed) above
T5 sequence (P18508 39-466): as the sequence (P18508 39-466) above

In the case of `CN1C(=O)CN=C(c2ccccc2)c2cc(Cl)ccc21` [DZP, diazepam], the “Direct activation of GABAAR currents” value [1] was “did not directly activate GABAAR currents”, the “Preference α2- versus α1GABAARs at low concentrations” value (from here on “Preference α2- versus α1GABAARs”) [2] was “favored α1GABAARs” and the “Efficacy of potentiation of α2- versus α1GABAARs at saturating concentrations” value [2] was “potentiated both GABAAR subtypes with similar efficacy”. The “Relative potentiation of subtypes at sub-saturating concentrations” value (“Relative potentiation of subtypes” below) [2] was “α1GABAAR mediated currents were potentiated more strongly than α2-, α3- and α5-GABAARs mediated currents”, the ED50 antihyperalgesia [3] was 3.4 ± 1.3 mg/kg and the ED50 sedation [4] was 0.59 ± 0.08 mg/kg. For the same molecule, the “Potentiation of currents (% increase upon application)” value (α3β3γ2 GABAAR) was 237% and the “α2GABAAR occupancy at which significant analgesia (>50% maximum possible effect) is achieved” value (α2GABAAR) was “about 70%”.

In the case of `O=C1CC(=O)N(c2ccccc2)c2cc(Cl)ccc2N1` [NDMC, 8-Chloro-1-phenyl-1H-1,5-benzodiazepine-2,4(3H,5H)-dione], the half-life ([5]; C57BL/6, mouse, plasma, range over single oral doses of 3, 10 and 30 mg kg^−1) was 4.6 to 5.6 h, the “Average maximum plasma concentration” value ([5]; single oral dose 3 mg kg^−1) was 1.2 µg/mL and the “Average maximum plasma concentration” value ([5]; single oral dose 10 mg kg^−1) was 1.9 µg/mL. The “Average maximum plasma concentration” value ([5]; single oral dose 30 mg kg^−1) was 3.3 µg/mL, the “Time to average maximum plasma concentrations” value [5, 11] was “about 2.5 hrs” and the “Time to maximal blood levels” value [5, 11] was 2 to 3 h. The “Direct activation of GABAAR currents” value [1] was “did not directly activate GABAAR currents”, the α2/α1GABAAR selectivity ratio ([2]; compared among DZP, CBZ and NDMC) was “most favorable α2/α1GABAAR selectivity ratio” and the “Preference α2- versus α1GABAARs” value [2] was “preferred α2GABAARs across the entire concentration range tested”. For the same molecule, the “Efficacy of potentiation of α2- versus α1GABAARs at saturating concentrations” value [2] was “clearly favored α2-over α1GABAARs”, the “Relative potentiation of subtypes” value [2] was “highest for α2- followed by α3-, and lowest for α5- and α1-GABAARs mediated currents” and the “Reversal of mechanical hypersensitivity (paw withdrawal threshold)” value ([6]; C57BL/6J mice, injured paw, NDMC 3, 10, 30 mg/kg, compared to vehicle) was “dose-dependently reversed this hypersensitivity”. The “Antihyperalgesic effect, mechanical hyperalgesia” value [6, 12] was “completely lost its antihyperalgesic effects”, the ED50 antihyperalgesia [3] was 3.1 ± 0.9 mg/kg and the “Effect on locomotor activity (sedation)” value (mice, motor activity; 129X1/SvJ mice, all tested doses) was “did not cause any measurable reduction in locomotor activity”. For the same molecule, the “Effect on motor activity (sedation)” value (mice, motor activity; C57BL/6J mice, 3, 10, 30 mg/kg, recorded for 6 h) was “did not impair motor activity at any dose”, the “Reversal of thermal hypersensitivity (paw withdrawal latency)” value ([7]; C57BL/6J mice, injured paw, NDMC 3, 10, 30 mg/kg) was “dose-dependently reversed this hypersensitivity” and the “Antihyperalgesic effect, heat hyperalgesia” value [7, 12] was “completely lost its antihyperalgesic effects”. For the same molecule, the “Binding affinity for α2 versus α1 receptor complexes” value [8] was “a difference which is shared”, the “Potentiation of currents (% increase upon application)” value (α1β2γ2 GABAAR) was 143% and the “Potentiation of currents (% increase upon application)” value (α3β3γ2 GABAAR) was 245%. For the same molecule, the “Efficacy at α2β3γ2GABAARs compared with DZP” value (α2β3γ2 GABAAR) was “even stronger efficacy at α2β3γ2GABAARs than the full agonist DZP”, the “Potentiation of currents (% increase upon application)” value (α2β3γ2 GABAAR; α2GABAARs, GABA at EC10) was 253% and the “Potentiation of currents (% increase upon application)” value (α5β2γ2 GABAAR) was 148%.

For `O=C1CN=C(c2ccccc2Cl)c2cc([N+](=O)[O-])ccc2N1` [clonazepam], the Analgesic effect (healthy volunteers) is listed as “weak analgesic effects” and the “Binding affinity for α2 versus α1 receptor complexes” value [8] is listed as “no distinction of affinity between α2 and α1 receptor complexes”.

For `CN1C(=O)CC(=O)N(c2ccccc2)c2cc(Cl)ccc21` [CBZ, clobazam], the “Potentiation of the other three α1-, α2-, and α5-GABAARs subtypes” value [9] was “about 150%”, the “Direct activation of GABAAR currents” value [1] was “did not directly activate GABAAR currents” and the “Preference α2- versus α1GABAARs” value [2] was “about similar effects on α2- and α1GABAARs”. The “Efficacy of potentiation of α2- versus α1GABAARs at saturating concentrations” value [2] was “potentiated both GABAAR subtypes with similar efficacy”, the “Relative potentiation of subtypes” value [2] was “α1GABAAR mediated currents were potentiated similarly to α2-, α3- and α5-GABAARs mediated currents” and the Half-life in human [10] was 23 to 24 h. The Analgesic effect (healthy volunteers) was “weak analgesic effects”, the “Binding affinity for α2 versus α1 receptor complexes” value [8] was “higher binding affinity for α2 versus α1 receptor complexes” and the “Potentiation of currents (% increase upon application)” value (α3β3γ2 GABAAR) was “about 300%”.
